Data from paper PMC9926234, “Iterative computational design and crystallographic screening identifies potent inhibitors targeting the Nsp3 macrodomain of SARS-CoV-2” (Proceedings of the National Academy of Sciences of the …, 2023).
Several values for one entry are separate records, joined by “and”; a condition that tells them apart may be missing. Identical values can stand only once. Like-named read-outs stand apart in the source and are kept apart here.

Molecular target: SARS-CoV-2 NSP3 Mac1 (Severe acute respiratory syndrome coronavirus 2, UniProt P0DTD1)
Format: binding
Details: for Refined occupancy: ligand occupancy after refinement (phenix.refine)
[1] = PanDDA event map 1-BDC, crystal soak, Compound_concentration 100 mM, PanDDA run dmso_34 or nohits_35 per dataset
[2] = PanDDA event map, 1 minus background density correction, crystal soaking of Mac1
[3] = crystal soak, Compound_concentration 100 mM, Echo dispense 40 nl, PanDDA run dmso_34 or nohits_35 per dataset
[4] = ligand modeled in this dataset, crystal soak, Compound_concentration 100 mM
[5] = PanDDA event map, crystal soak, Compound_concentration 100 mM, Echo_dispense_volume 40 nl
[6] = crystal soak, Compound_concentration 100 mM, Echo_dispense_volume 40 nl, PanDDA run (background map) dmso_34, nohits_35 or nohits_62
[7] = ligand modeled, crystal soak, Compound_concentration 100 mM, Echo_dispense_volume 40 nl
[8] = PanDDA 1-BDC value of the event, crystal soak, compound concentration 100 mM, per dataset
[9] = PanDDA event map, 1-BDC of the hit dataset, crystal soak, compound concentration 100 mM
[10] = crystal soak, compound concentration 100 mM, per dataset
[11] = PanDDA 1-BDC (background density correction) of the event, crystal soak 100 mM, PanDDA run dmso_34
[12] = crystal soak, compound concentration 100 mM, PanDDA run dmso_34, series docking_lead-like_1
[13] = PanDDA event map background density correction, crystal soak, compound concentration 100 mM
[14] = ligand modeled in the crystal structure, crystal soak, compound concentration 100 mM
[15] = PanDDA 1-BDC of the event, compound stock 100 mM, Echo dispense volume 80 nl
[16] = crystal soak, compound stock 100 mM, Echo dispense volume 80 nl
[17] = ligand modeled in the crystal structure, crystal soak 100 mM, PanDDA run dmso_34
[18] = ligand modeled from this dataset, compound concentration 100 mM
[19] = ligand modeled in the crystal structure, crystal soak, compound concentration 100 mM, per dataset

| SMILES | 1-BDC (PanDDA) [2] | Refined occupancy (crystal soaking of Mac1) | 1-BDC [5] | PanDDA hit? [6] | Modeled? [7] | also measured |
| --- | --- | --- | --- | --- | --- | --- |
| O=C(Nc1ccc(C(=O)N[C@@H]2c3cccc(O)c3C[C@H]2C(=O)O)cc1)NC1CC1 [Compound E2160] | 0.1 | 20 | – | – | – | 1-BDC [1]: 0.08 and 0.1; PanDDA hit? [3]: TRUE; Modeled? [4]: TRUE |
| CCC(=O)Nc1nc(C)c(S(=O)(=O)Nc2cccc(C#N)c2)s1 [Compound Z0611] | 0.33 | 66 | 0.33 | TRUE | TRUE | – |
| Nc1ncc(S(=O)(=O)N2CC(F)(F)C[C@H]2C(=O)O)cn1 [Compound Z1314] | – | 38 | – | – | – | 1-BDC [8]: 0.49; 1-BDC [9]: 0.3; 1-BDC [2]: 0.19; PanDDA hit? [10]: TRUE |
| CC(C)c1noc(CCc2nc(-c3ccnc4[nH]ccc34)no2)n1 [Compound Z1347] | – | – | – | – | – | 1-BDC [11]: 0.03; PanDDA hit? [12]: TRUE |
| Nc1ccc(C(=O)N2CC(c3nnc(S)o3)C2)c(Cl)n1 [Compound Z1366] | – | – | – | – | – | 1-BDC [13]: 0.1 |
| O=C(O)CC1CC(CNC(=O)c2cncc3sccc23)C1 (centres unmarked) [Compound Z1558] | 0.24 | 48 | 0.24 | TRUE | TRUE | Comment (ligand modelled in the crystal structure) (what was observed in density instead of the vendor structure): C4 substituted thiophene |
| CC(Cc1ccco1)C(=O)N[C@@H](CC(=O)O)c1ccc2c(c1)OCO2 (some centres unmarked) [Compound Z1877] | 0.15 | 30 | – | – | – | 1-BDC [13]: 0.15; Modeled? [14]: TRUE |
| CC1(C)CN(c2ncnc3[nH]c4ccccc4c23)CC(CC(=O)O)O1 (centres unmarked) [Compound Z2215] | 0.05 | 10 | – | – | – | 1-BDC (PanDDA 1-BDC of the event, compound stock 100 mM, Echo dispense volume 40 nl): 0.05; 1-BDC [1]: 0.04; PanDDA hit? [3]: TRUE; PanDDA hit? (crystal soak, compound stock 100 mM, Echo dispense volume 40 nl): TRUE; Modeled? (ligand modeled in structure, compound stock 100 mM, Echo dispense volume 40 nl): TRUE |
| Cc1oc(CNc2ncnc3[nH]c4ccccc4c23)cc1C(=O)O [Compound Z3124] | 0.09 | 18 | – | – | – | 1-BDC [13]: 0.09; Modeled? [14]: TRUE |
| CC(F)(F)c1cncc(C(=O)NC(Cc2cncc(Br)c2)C(=O)O)c1 (centres unmarked) [Compound Z3140] | 0.1 | 20 | – | – | – | 1-BDC [13]: 0.1; Modeled? [14]: TRUE |
| O=C(NS(=O)(=O)Cc1ccc(Br)c(F)c1)c1cnn2ccccc12 [Compound Z3209] | 0.38 | 76 | 0.38 | TRUE | TRUE | – |
| O=C(CCCCc1ccc(Br)cc1)NC(CCc1cn[nH]c1)C(=O)O (centres unmarked) [Compound Z3213] | – | – | – | – | – | 1-BDC [13]: 0.11 |
| O=C(O)CC(NC(=O)c1cc(F)cc2[nH]cnc12)c1ccc(Br)cc1 (centres unmarked) [Compound Z3722] | 0.29 | 40 | 0.29 | TRUE | TRUE | – |
| O=C(O)C(F)(F)F.O=C(O)C1CN(c2ncnc3[nH]c4ccccc4c23)CC12CCC2 (centres unmarked) [Compound Z4706] | 0.14 | 28 | 0.14 | TRUE | TRUE | 1-BDC [15]: 0.21; 1-BDC [1]: 0.17; PanDDA hit? [3]: TRUE; PanDDA hit? [16]: TRUE |
| O=C1OCCN1C1CCN(c2ncnc3[nH]c4cc(F)ccc4c23)C1 (centres unmarked) [Compound Z5107] | 0.06 | 12 | 0.06 | TRUE | TRUE | 1-BDC [15]: 0.09; 1-BDC [1]: 0.06; PanDDA hit? [3]: TRUE; PanDDA hit? [16]: TRUE |
| O=C(Cc1ccc(-n2cccn2)cc1)OCC1CCCNC1=O (centres unmarked) [Compound Z5505] | – | 16 | – | – | – | 1-BDC (PanDDA event map background density correction, crystal soak, Compound_concentration 100 mM, PanDDA run dmso_34): 0.08; 1-BDC [2]: 0.08; PanDDA hit? (crystal soak, Compound_concentration 100 mM, Echo dispense 40 nl, PanDDA run dmso_34): TRUE; Modeled? (ligand modeled in crystal structure, crystal soak, Compound_concentration 100 mM, PanDDA run dmso_34): TRUE |
| O=C(O)Cc1cccc(CNC(=O)c2ncnc3ccsc23)c1 [Compound Z5712] | 0.32 | 64 | 0.32 | TRUE | TRUE | – |
| Nc1ncnc2c1ncn2CCCc1ccsc1 [Compound Z5972] | – | – | – | – | – | 1-BDC [11]: 0.16; PanDDA hit? [12]: TRUE |
| CNc1cc(-c2noc(CN3CCCC3=O)n2)ncn1 [Compound Z6028] | – | – | – | – | – | 1-BDC [11]: 0.05; PanDDA hit? [12]: TRUE |

| SMILES | 1-BDC (PanDDA) [2] | Refined occupancy (crystal soaking of Mac1) | 1-BDC [5] | PanDDA hit? [6] | Modeled? [7] | also measured |
| --- | --- | --- | --- | --- | --- | --- |
| O=C(O)CC1CCN(c2ncnc3[nH]c4ccccc4c23)CCC1(F)F (centres unmarked) [Compound Z6423] | – | – | – | – | – | 1-BDC [1]: 0.07; PanDDA hit? [3]: TRUE |
| O=C(O)Cc1ccc(CNC(=O)c2ccnc3ccsc23)cc1 [Compound Z6625] | 0.12 | 24 | 0.12 | TRUE | TRUE | – |
| COc1cncc(C(=O)NCCNC(=O)c2ncccc2O)c1 [Compound Z6634] | 0.14 | 28 | 0.14 | TRUE | TRUE | – |
| O=C(NC1C=CC(C(=O)O)C1)c1ncnc2sccc12 (centres unmarked) [Compound Z6645] | 0.4 | 80 | – | – | – | 1-BDC [13]: 0.4; Modeled? [14]: TRUE |
| CC(=O)Nc1nc(C)c(S(=O)(=O)Nc2ccc(C)c(C#N)c2)s1 [Compound Z6707] | 0.23 | 46 | 0.23 | TRUE | TRUE | – |
| Cc1oc(C(N)=O)cc1S(=O)(=O)Nc1ccc(Br)c(C#N)c1 [Compound Z6708] | 0.26 | 52 | – | – | – | 1-BDC [13]: 0.26; Modeled? [14]: TRUE |
| Cn1ncc2ncnc(NS(=O)(=O)Cc3ccc(CC#N)cc3)c21 [Compound Z6742] | 0.31 | 62 | – | – | – | 1-BDC [13]: 0.31; Modeled? [14]: TRUE |
| Cc1oc(C(N)=O)cc1S(=O)(=O)Nc1cnc(Cl)c(C#N)c1 [Compound Z6746] | 0.16 | 32 | – | – | – | 1-BDC [13]: 0.16; Modeled? [14]: TRUE |
| c1csc(CC2CCN(c3ncnc4[nH]ccc34)C2)n1 (centres unmarked) [Compound Z6891] | – | 60 | – | – | – | 1-BDC [11]: 0.3; 1-BDC [2]: 0.3; PanDDA hit? [12]: TRUE; Modeled? [17]: TRUE |
| Cc1oc(=O)oc1CSc1ncnc2[nH]cnc12 [Compound Z7450] | – | 25 | – | – | – | 1-BDC [11]: 0.23; 1-BDC [2]: 0.23; PanDDA hit? [12]: TRUE; Modeled? [17]: TRUE |
| O=C(O)c1ccc(F)c(CNC(=O)c2ccc3[nH]ccc3c2)c1 [Compound Z7647] | 0.09 | 18 | 0.09 | TRUE | TRUE | – |
| OCc1cn(C2CCCN(c3ncnc4[nH]ccc34)C2)nn1 (centres unmarked) [Compound Z7864] | – | 10 | – | – | – | 1-BDC [11]: 0.05; 1-BDC [2]: 0.05; PanDDA hit? [12]: TRUE; Modeled? [17]: TRUE |
| O=C(NC1c2cccc(O)c2CC1C(=O)O)c1ccc(Nc2cccnc2)cc1 (centres unmarked) [Compound Z8539_0018] | 0.1 | 20 | – | – | – | Modeled? [18]: TRUE |
| O=C(Nc1ccc(C(=O)NC2c3cccc(O)c3CC2C(=O)O)cn1)NC1CC1 (centres unmarked) [Compound Z8539_0054] | – | 28 | – | – | – | 1-BDC [2]: 0.14; Modeled? [18]: TRUE |
| Cc1nc(Cn2cnc3c(N)nc(N)nc32)cs1 [Compound Z8569] | – | 80 | – | – | – | 1-BDC [8]: 0.4; 1-BDC [2]: 0.4; PanDDA hit? [10]: TRUE; Modeled? [19]: TRUE |
| Nc1nc(N)c2ncn(Cc3csc(Cl)n3)c2n1 [Compound Z8572] | – | 88 | – | – | – | 1-BDC [2]: 0.44; Modeled? (ligand modeled in structure, crystal soak, Compound_concentration 100 mM): TRUE |
| Nc1nc(N)c2ncn(Cc3csc(C4CC4)n3)c2n1 [Compound Z8585] | – | 36 | – | – | – | 1-BDC [8]: 0.18; 1-BDC [9]: 0.4; 1-BDC [2]: 0.18; PanDDA hit? [10]: TRUE; Modeled? [19]: TRUE |
| CO[C@@H]1CN(c2ncnc3[nH]c4cc(F)ccc4c23)C[C@@H](CO)O1 [Compound Z8973] | 0.23 | 60 | 0.23 | TRUE | TRUE | 1-BDC [15]: 0.25; 1-BDC [1]: 0.23; PanDDA hit? [3]: TRUE; PanDDA hit? [16]: TRUE |
| O=C(Nc1ccc(C(=O)N[C@H]2c3cccc(O)c3C[C@H]2C(=O)O)cc1)NC1CC1 [Compound Z9050] | 0.27 | 54 | – | – | – | 1-BDC [1]: 0.21 and 0.27; PanDDA hit? [3]: TRUE; Modeled? [4]: TRUE |
